Results on 14 molecules are retold here after PubChem BioAssay (NCI).

SMILES strings stand for the structures.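 In this assay, cells in 96-well plates receive the compound at five concentrations for 48 hours. Endpoints are linearly interpolated between the surrounding concentrations. GI50 is the concentration that inhibits growth by half. TGI denotes the concentration required for complete inhibition of growth.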

Among the test systems are HS 578T breast; OVCAR-8 ovarian; PC-3 prostate; SR leukemia; SK-MEL-5 melanoma; 786-0 renal; SN12C renal; NCI-H522 lung; SK-MEL-2 melanoma; SK-MEL-28 melanoma.
What all share (assay): NCI anticancer screen, dose series, 48 h

With `O=C(O)c1cc(O)c2c(c1)C(C1c3cc(C(=O)O)cc(O)c3C(=O)c3c(OC4OC(CO)C(O)C(O)C4O)cccc31)c1cccc(OC3OC(CO)C(O)C(O)C3O)c1C2=O` (stereo not given), the GI50 in the test with HS 578T breast, in the test on OVCAR-8 ovarian, in the test on PC-3 prostate, with SR leukemia, with SK-MEL-5 melanoma and in the test on 786-0 renal was over 100 µM in each case. Further, the GI50 in the test with SN12C renal, with NCI-H522 lung, with SK-MEL-2 melanoma and in the test with SK-MEL-28 melanoma was over 100 µM throughout. Besides, the TGI in the test with HS 578T breast, with OVCAR-8 ovarian, with PC-3 prostate, in the test with SR leukemia, in the test with SK-MEL-5 melanoma and in the test with 786-0 renal was over 100 µM each time. The TGI with SN12C renal, in the test with NCI-H522 lung, with SK-MEL-2 melanoma and with SK-MEL-28 melanoma was over 100 µM in each case.

On to `CCN(CC)CC(C)(C)C(=O)/C=C/c1ccc(Cl)c(Cl)c1`, for which the GI50 in the test with HS 578T breast is 2.45 µM; in the test on OVCAR-8 ovarian, 1.88 µM; in the test on PC-3 prostate, 1.85 µM; with SR leukemia, 1.75 µM; with SK-MEL-5 melanoma, 1.84 µM; in the test on 786-0 renal, 1.62 µM. Also, the figures for the GI50 in the test with NCI-H522 lung, in the test with SK-MEL-2 melanoma and in the test on SK-MEL-28 melanoma were 1.71 µM, 2.5 µM and 1.57 µM, respectively. In addition, the TGI in the test with HS 578T breast is 5.94 µM; in the test on OVCAR-8 ovarian it was 3.91 µM; in the test with PC-3 prostate, 3.51 µM; in the test on SR leukemia it was 8.91 µM; in the test with SK-MEL-5 melanoma, 3.29 µM; in the test with 786-0 renal it was 3.04 µM. Further, the TGI in the test with NCI-H522 lung was 3.2 µM; in the test with SK-MEL-2 melanoma it was 4.63 µM; with SK-MEL-28 melanoma, 3.08 µM.

Regarding `c1ccc2c3ccn4cc5c(cc4c-3nc2c1)CCCC5`, the GI50 with HS 578T breast was 3.01 µM; with OVCAR-8 ovarian, 3.62 µM; in the test with SK-MEL-5 melanoma, 2.42 µM; with 786-0 renal, 3.46 µM; with SN12C renal, 3.57 µM; in the test with SK-MEL-2 melanoma, 3.05 µM. Besides, the GI50 in the test on SK-MEL-28 melanoma is 2.38 µM. In addition, the TGI with HS 578T breast came out at 21.5 µM; in the test on OVCAR-8 ovarian it was 51.2 µM; in the test with PC-3 prostate, 12.1 µM; in the test with SK-MEL-5 melanoma, 10.3 µM; in the test with 786-0 renal, 13.5 µM; in the test with SN12C renal it was 16.2 µM. Besides, the TGI was 5.75 µM in the test on NCI-H522 lung, 10.2 µM in the test with SK-MEL-2 melanoma and 11.7 µM in the test with SK-MEL-28 melanoma.

Take `O=C(CCCN1CC=C(n2c(=O)[nH]c3ccccc32)CC1)c1ccc(F)cc1`: the GI50 was 24 µM in the test on HS 578T breast; 32.9 µM with OVCAR-8 ovarian; 29 µM in the test on PC-3 prostate; 29.6 µM with SR leukemia; 14.9 µM with SK-MEL-5 melanoma; 29.3 µM in the test on 786-0 renal. Also, the GI50 is 96.2 µM with SN12C renal, 65.1 µM in the test with NCI-H522 lung, 19.5 µM with SK-MEL-2 melanoma and 52.6 µM in the test with SK-MEL-28 melanoma. Moreover, the TGI in the test on HS 578T breast is 99.8 µM; with OVCAR-8 ovarian, over 100 µM; in the test with PC-3 prostate, over 100 µM; with SR leukemia it was 89.1 µM; in the test with SK-MEL-5 melanoma it was 28.6 µM; in the test on 786-0 renal, over 100 µM. For the same molecule, the TGI in the test on SN12C renal was over 100 µM; with NCI-H522 lung it was over 100 µM; in the test on SK-MEL-2 melanoma it was 70.9 µM; in the test on SK-MEL-28 melanoma, over 100 µM.

For the molecule `COc1ccc(C2C(C#N)=C(N)OC3=C2COc2ccc(F)cc23)cc1OC` (stereo not given), the GI50 in the test with HS 578T breast was 35.6 µM; in the test on OVCAR-8 ovarian, 28.5 µM; with PC-3 prostate, 23.2 µM; in the test with SR leukemia it was 9.09 µM; with SK-MEL-5 melanoma it was 12.9 µM; in the test on 786-0 renal, 25.6 µM. Further, the GI50 in the test on SN12C renal is 20.8 µM; with NCI-H522 lung, 54.3 µM; in the test with SK-MEL-2 melanoma, 68.7 µM; in the test on SK-MEL-28 melanoma, 51.8 µM. Further, the TGI in the test with HS 578T breast was 81.7 µM; in the test with OVCAR-8 ovarian, over 100 µM; with PC-3 prostate it was 93.6 µM; with SR leukemia, over 100 µM; in the test with SK-MEL-5 melanoma, 44.9 µM; in the test on 786-0 renal it was over 100 µM. The TGI is 89.4 µM with SN12C renal, over 100 µM with NCI-H522 lung, over 100 µM with SK-MEL-2 melanoma and over 100 µM in the test on SK-MEL-28 melanoma.

For the molecule `N#CC1Nc2ccccc2[C@@H](O)C1O` (stereo not given in full), the TGI in the test on HS 578T breast, in the test on OVCAR-8 ovarian, with PC-3 prostate, in the test with SR leukemia, with SK-MEL-5 melanoma and in the test on 786-0 renal was over 100 µM in each case. For the same molecule, the TGI with SN12C renal, in the test with SK-MEL-2 melanoma and in the test with SK-MEL-28 melanoma was over 100 µM each time.

Regarding `Cc1c(C2Nc3ccccc3C2C)[nH]c2ccccc12` (stereo not given), the GI50 with HS 578T breast was 16.1 µM; in the test with OVCAR-8 ovarian, 9.1 µM; in the test with PC-3 prostate, 10.6 µM; with SR leukemia it was 0.738 µM; in the test on SK-MEL-5 melanoma it was 0.894 µM; with 786-0 renal it was 12 µM. The GI50 with SN12C renal is 11.4 µM; in the test with NCI-H522 lung it was 10.8 µM; in the test on SK-MEL-28 melanoma it was 12 µM. The TGI was 49.7 µM in the test on HS 578T breast; 29.2 µM in the test on OVCAR-8 ovarian; 32.3 µM in the test on PC-3 prostate; 26.3 µM in the test with SR leukemia; 17.4 µM in the test with SK-MEL-5 melanoma; 31.5 µM with 786-0 renal. Besides, the figures for the TGI in the test with SN12C renal, in the test on NCI-H522 lung and in the test on SK-MEL-28 melanoma were 24.1 µM, 26.5 µM and 26.2 µM, respectively.

As to `CSC1(CC(=O)N(C)C)C(=O)Nc2ccccc21` (stereo not given), the TGI in the test with HS 578T breast, with PC-3 prostate, in the test on SR leukemia, in the test on SK-MEL-5 melanoma, with 786-0 renal and with SK-MEL-2 melanoma was over 100 µM each time. Also, the TGI in the test with SK-MEL-28 melanoma is over 100 µM.

As to `OCCCCC#Cc1ccccc1C#Cc1cccc(O)c1`, the GI50 was 31.2 µM in the test on HS 578T breast; 18.2 µM in the test with OVCAR-8 ovarian; 16.9 µM in the test with PC-3 prostate; 17.8 µM with SK-MEL-5 melanoma; 13.8 µM with 786-0 renal; 17.9 µM in the test on SN12C renal. Besides, the figures for the GI50 in the test with NCI-H522 lung, with SK-MEL-2 melanoma and in the test with SK-MEL-28 melanoma were 14.3 µM, 18.6 µM and 14.2 µM, respectively. The TGI with HS 578T breast is 94.7 µM; in the test with OVCAR-8 ovarian, 36.9 µM; in the test with PC-3 prostate it was 38.1 µM; in the test with SK-MEL-5 melanoma it was 32.7 µM; with 786-0 renal it was 29.2 µM; in the test with SN12C renal it was 40 µM. Moreover, the results for the TGI with NCI-H522 lung, in the test with SK-MEL-2 melanoma and in the test on SK-MEL-28 melanoma were 28.9 µM, 38.8 µM and 28.2 µM, respectively.

On to `O/N=C\c1c(O)ccc2ccccc12`, for which the TGI with HS 578T breast is over 100 µM; in the test on OVCAR-8 ovarian, over 100 µM; in the test on PC-3 prostate, over 100 µM; in the test on SR leukemia it was 82.1 µM; with SK-MEL-5 melanoma it was over 100 µM; with 786-0 renal, over 100 µM. For the same molecule, the TGI in the test with SN12C renal and in the test with SK-MEL-28 melanoma was over 100 µM each time.

As to `COC(COC(=O)N1CCN(C=O)CC1)C1=C(N2CC2)C(=O)C(C)=C(N2CC2)C1=O` (stereo not given), the TGI is 5.17 µM in the test on HS 578T breast; 1.36 µM in the test with OVCAR-8 ovarian; 3.24 µM in the test on PC-3 prostate; under 0.011 µM with SR leukemia; 0.7 µM with SK-MEL-5 melanoma; 0.43 µM in the test on 786-0 renal. Besides, the figures for the TGI with SN12C renal, in the test with NCI-H522 lung and with SK-MEL-28 melanoma were 1.14 µM, 0.26 µM and 3.33 µM, respectively.

Take `Cc1n(Cc2ccc3ccccc3c2)cc[n+]1Cc1ccc2ccccc2c1`: the GI50 in the test on HS 578T breast was 1.6 µM; in the test on OVCAR-8 ovarian it was 1.21 µM; in the test on PC-3 prostate, 1.06 µM; in the test on SR leukemia, 0.552 µM; in the test with SK-MEL-5 melanoma it was 0.628 µM; in the test with 786-0 renal it was 2.25 µM. For the same molecule, the GI50 is 1.22 µM in the test with SN12C renal, 0.256 µM in the test with NCI-H522 lung and 1.02 µM in the test on SK-MEL-28 melanoma. For the same molecule, the TGI was 11.3 µM in the test with HS 578T breast; 10.3 µM in the test on OVCAR-8 ovarian; 11.6 µM with PC-3 prostate; 2.47 µM in the test with SR leukemia; 1.87 µM in the test with SK-MEL-5 melanoma; 8.52 µM in the test with 786-0 renal. Moreover, the TGI in the test with SN12C renal came out at 10.2 µM; with NCI-H522 lung it was 1.81 µM; with SK-MEL-28 melanoma, 3.05 µM.

Take `Cc1cn2c(/C=C3/C(=O)Nc4ccccc43)c(-c3ccc(Cl)cc3)nc2s1`: the GI50 with HS 578T breast is 9.26 µM; with OVCAR-8 ovarian, 10.2 µM; in the test with PC-3 prostate it was 9.81 µM; in the test with SR leukemia, 11.5 µM; with SK-MEL-5 melanoma it was 9.06 µM; in the test with 786-0 renal it was 7.08 µM. The figures for the GI50 in the test with NCI-H522 lung and in the test with SK-MEL-2 melanoma were 9.01 µM and 30.8 µM, respectively. Further, the TGI turned out to be 31.9 µM in the test with HS 578T breast; 23.6 µM in the test on OVCAR-8 ovarian; 16.9 µM in the test on PC-3 prostate; 39.8 µM in the test on SR leukemia; 16 µM in the test with SK-MEL-5 melanoma; 13.6 µM in the test on 786-0 renal. The TGI was 19.5 µM in the test on NCI-H522 lung and over 50 µM in the test on SK-MEL-2 melanoma.

On to `COc1cc(/C=C2\C(=O)Nc3ccc(F)cc32)cc(OC)c1OC`, for which the GI50 in the test on HS 578T breast was 30.4 µM; with OVCAR-8 ovarian, 64.2 µM; in the test with PC-3 prostate, 40.4 µM; in the test on SK-MEL-5 melanoma it was 17.3 µM; in the test with 786-0 renal, 31.2 µM; in the test with SN12C renal, 51.8 µM. For the same molecule, the GI50 in the test with NCI-H522 lung was 22.8 µM; in the test with SK-MEL-2 melanoma it was 96.4 µM; in the test on SK-MEL-28 melanoma it was 56.7 µM. Also, the TGI in the test with HS 578T breast, in the test on OVCAR-8 ovarian, in the test with PC-3 prostate, with SK-MEL-5 melanoma, with 786-0 renal and with SN12C renal was over 100 µM in each case. In addition, the TGI in the test with NCI-H522 lung, in the test with SK-MEL-2 melanoma and with SK-MEL-28 melanoma was over 100 µM throughout.
